Experimental data taken from PubChem BioAssay (NCI).
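Cells were grown in 96-well plates and exposed to each compound for 48 hours at five concentrations; endpoints were interpolated linearly between bracketing concentrations, or set to the highest concentration if not reached. TGI marks complete inhibition of growth.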

What was measured:
Assay in all cases: NCI-60 cell line screen, 48 h
[1] = test system: SK-MEL-28 melanoma
[2] = test system: OVCAR-4 ovarian
[3] = test system: SF-539 CNS
[4] = test system: OVCAR-8 ovarian
[5] = test system: SN12C renal
[6] = test system: CCRF-CEM leukemia
[7] = test system: RXF 393 renal
[8] = test system: MALME-3M melanoma
[9] = test system: MDA-N

SMILES | TGI [1] [µM] | TGI [2] [µM] | TGI [3] [µM] | TGI [4] [µM] | TGI [5] [µM] | TGI [6] [µM] | TGI [7] [µM] | TGI [8] [µM] | TGI [9] [µM]
CN1Cc2c(ccc3c2OCO3)[C@@H]2[C@H](O)Cc3cc4c(cc3[C@@H]21)OCO4 | > 100 | > 100 | 4.6 | > 51.5 | > 39.7 | > 29.2 | > 26.2 | > 100 | 1.46
CC(C)[C@H](NC(=O)OCc1ccccc1)C(=O)N[C@H](/C=C/C(=O)OC(C)(C)C)CO | > 100 | > 100 | > 100 | > 100 | > 100 | > 100 | > 100 | > 100 | > 100
COc1c(-c2nc3nc(N4CCN(C)CC4)ccc3[nH]2)cc(OC)c2c1nc(CCl)n2C | 71.7 | 44.3 | 20.7 | 50.5 | > 100 | 62.1 | 33.8 | 37.5 | > 100
COc1ccc2c(C=O)c3n(c(=O)c2c1OC)CCc1cc2c(cc1-3)OCO2 | > 100 | > 100 | > 100 | > 100 | > 100 | > 100 | 11.3 | > 100 | > 100
N/N=C(\N)SCc1ccc(N=C=S)cc1 | > 100 | > 100 | > 100 | > 100 | > 100 | > 100 | > 100 | > 100 | > 100
C/C(=C\CNc1ncnc2c1ncn2CCC#N)CO | > 100 | > 100 | > 100 | > 100 | > 100 | > 100 | > 100 | > 100 | > 100
O=C1CSC(c2cccc(Oc3ccccc3)c2)N1c1cc(Cl)ccc1Cl (stereo not given) | > 100 | 60.8 | 35.6 | 62.5 | 39.1 | > 100 | 40.3 | 57.6 | 35.7
CCOC(=O)c1c(SCCN(CC)CC)n(-c2ccccc2)c(=S)n(-c2ccccc2)c1=O | 11.9 | 25.5 | 9.11 | 7.19 | 3.4 | 3.34 | 3.28 | 3.06 | 7
CC(=O)OC/C=C/Cn1nc(Br)c(=O)[nH]c1=O | > 100 | > 100 | > 100 | > 100 | > 100 | > 100 | > 100 | > 100 | > 100
CCc1nc2cc(F)ccc2[nH]c1=O | > 100 | > 100 | > 100 | > 100 | > 100 | > 100 | > 100 | > 100 | > 100
COc1cc(CC2C(=O)OCC2Cc2ccc(OC)c(OC)c2)ccc1O (stereo not given) | > 100 | > 100 | > 100 | > 100 | > 100 | > 100 | > 100 | > 100 | > 100
Nc1nc2c(ccc3ccccc32)[nH]1 | > 10 | > 10 | > 10 | > 10 | > 10 | > 10 | > 10 | > 10 | > 10
COc1ccc(OC)c2c(Nc3ccc(S(=O)(=O)O)c4cc(S(=O)(=O)O)cc(S(=O)(=O)O)c34)cc(C)nc12 | > 100 | > 100 | > 100 | > 100 | > 100 | > 100 | > 100 | > 100 | > 100
O=C(CCc1ccccc1)NCCc1ccc(O)c(O)c1 | > 100 | 46.7 | > 87.5 | > 85.6 | > 69.5 | 27.1 | > 100 | > 100 | 28.5
Nc1nc(N)c2ncn(Cc3ccccc3)c2n1 | > 100 | > 100 | > 100 | > 100 | > 100 | > 100 | > 100 | > 100 | > 100
O=C1Cc2c(-c3ccccc3)cc(-c3ccc(Cl)cc3)nc2-c2ccccc2N1 | > 31.8 | 3.82 | 19.8 | 9.09 | 16.9 | > 53.4 | 17.3 | > 34.4 | 35.4
Cc1nnc(N)s/c1=N/O | > 100 | > 100 | > 100 | > 100 | > 100 | > 100 | > 100 | > 100 | > 100
CCOP(=O)(OCC)/C(C#N)=C(\C)c1ccco1 | > 10 | > 10 | > 10 | > 10 | > 10 | > 10 | > 10 | > 10 | > 10
O=C1c2sccc2C(=O)c2c(CO)csc21 | 38.3 | 9.46 | 14.8 | 12.4 | 22.4 | > 51.6 | 3.22 | 6.71 | 3.16
CC(=O)Oc1c(OC(C)C)cc(=O)n2ccsc12 | > 100 | > 100 | > 100 | > 100 | > 100 | 70.4 | > 100 | > 100 | > 100
